Experimental data as given in patent publication US20250120961A1, “P53 MODULATORS” (Nested Therapeutics, Inc., priority 2023, published 2025).

target: His-tagged p53-Y220C DNA binding domain (Homo sapiens, UniProt P04637, Y220C); assay: Biochemical p53-Y220C and DNA binding assay (HTRF); conditions: inflection point of 10 points dose titration, 4 parameter curve fit; p53-Y220C DBD 100 nM, biotinylated dsDNA 200 nM, 27 to 29° C.; read-out: HTRF IP
Excerpt: Biological Example 1. Biochemical p53-Y220C and DNA Binding Assay
The compounds of this invention can bind to p53-Y220C and increase the ability of the mutant p53 to bind to DNA at higher temperatures. His-tagged p53-Y220C DNA binding domain containing amino acid 94-312 is used to measure DNA binding activities in vitro with the sequence described below. (SEQ ID NO: 1: […]. Biotin labeled double strand DNA (dsDNA) containing consensus p53 binding sequence (SEQ ID NO: 2: Forward: 5′-(biotin)-[…]-3′; Reverse: 5′-(biotin)-[…]-3′) is used to measure protein-DNA binding activities. Compounds, His-tagged p53-Y220C DBD proteins (100 nM), and biotinylated dsDNA (200 nM) were mixed in ice-cold assay buffer containing DPBS, 20 mM NaCl, and 0.5% BAS, and incubated at 4° C. overnight in 384-well plate. Plates were transferred to incubator at 27 to 29° C. with constant shaking for 60 minutes. Equal volume of Homogeneous Time-Resolved Fluorescence (HTRF) dyes containing mAb anti-6HIS Tb cryptate gold and d2 labeled streptavidin in the assay buffer was added to each well and incubated at 27 to 29° C. with constant shaking for 60 minutes. The plate was read using Envision multimode plate reader. Reference compound 1 was used as high control and DMSO was used as low control. The percentage activation (A %) of protein-DNA binding by compounds was normalized by setting up high control (reference compound) as […] and low control (DMSO) as 0% (A %=(HTRF ratio of compound-HTRF ratio of low control)/(HTRF ratio of high control-HTRF ratio of low control)*500). 10 points dose titration curves for each compound were analyzed by 4 parameter curve fit and inflection point (IP) was reported. Reference compound 1 is shown below Table 1. Compounds of the invention are active in the HTRF assay. Data in Table 1 collected using Biological Example 1.

With `O=C(OCc1ccccc1)N1CCC(O)(CO/N=C/c2sc3c(N[C@@H]4CNC[C@@H]4F)cccc3c2CC(F)(F)F)CC1` [Example 1-25, benzyl 4-(((((E)-(7-(((3R,4S)-4-fluoropyrrolidin-3-yl)amino)-3-(2,2,2-trifluoroethyl)benzo[b]thiophen-2-yl)methylene)amino)oxy)methyl)-4-hydroxypiperidine-1-carboxylate] as the compound, how does the EC50 read?
The EC50 was greater than 1000 nM.

Which EC50 does the source give for `O=C(OCc1ccccc1)N1CCC(CO)(O/N=C/c2sc3c(N[C@@H]4CNC[C@@H]4F)cccc3c2CC(F)(F)F)CC1` [Example 1-26, benzyl 4-((((E)-(7-(((3R,4S)-4-fluoropyrrolidin-3-yl)amino)-3-(2,2,2-trifluoroethyl)benzo[b]thiophen-2-yl)methylene)amino)oxy)-4-(hydroxymethyl)piperidine-1-carboxylate] here?
Its EC50 is greater than 1000 nM.

With `OC(CO/N=C/c1sc2c(N[C@@H]3CNC[C@@H]3F)cccc2c1CC(F)(F)F)Cn1cccn1` (stereo partly drawn) [Example 1-27, (E)-7-(((3R,4S)-4-fluoropyrrolidin-3-yl)amino)-3-(2,2,2-trifluoroethyl)benzo[b]thiophene-2-carbaldehyde O-(2-hydroxy-3-(1H-pyrazol-1-yl)propyl) oxime] as the compound, how does the EC50 read?
The EC50 was 100 to 1000 nM.

With `OCC(Cn1cccn1)O/N=C/c1sc2c(N[C@@H]3CNC[C@@H]3F)cccc2c1CC(F)(F)F` (stereo partly drawn) [Example 1-28, (E)-7-(((3R,4S)-4-fluoropyrrolidin-3-yl)amino)-3-(2,2,2-trifluoroethyl)benzo[b]thiophene-2-carbaldehyde O-(1-hydroxy-3-(1H-pyrazol-1-yl)propan-2-yl) oxime] as the compound, how does the EC50 read?
The EC50 was greater than 1000 nM.

With `OC1(CO/N=C/c2sc3c(N[C@@H]4CNC[C@@H]4F)cccc3c2CC(F)(F)F)CCCCC1` [Example 1-29, (E)-7-(((3R,4S)-4-fluoropyrrolidin-3-yl)amino)-3-(2,2,2-trifluoroethyl)benzo[b]thiophene-2-carbaldehyde O-((1-hydroxycyclohexyl)methyl) oxime] as the compound, how does the EC50 read?
Its EC50 is greater than 1000 nM.

For `OCC1(O/N=C/c2sc3c(N[C@@H]4CNC[C@@H]4F)cccc3c2CC(F)(F)F)CCCCC1` [Example 1-30, (E)-7-(((3R,4S)-4-fluoropyrrolidin-3-yl)amino)-3-(2,2,2-trifluoroethyl)benzo[b]thiophene-2-carbaldehyde O-(1-(hydroxymethyl)cyclohexyl) oxime], which EC50 is on record?
Its EC50 is greater than 1000 nM.

For `OC1(CO/N=C\c2sc3c(N[C@@H]4CNC[C@@H]4F)cccc3c2CC(F)(F)F)CCCCC1` [Example 1-31, (Z)-7-(((3R,4S)-4-fluoropyrrolidin-3-yl)amino)-3-(2,2,2-trifluoroethyl)benzo[b]thiophene-2-carbaldehyde O-((1-hydroxycyclohexyl)methyl) oxime], which EC50 is on record?
The EC50 was greater than 1000 nM.

For `OC1(CO/N=C/c2sc3c(N[C@@H]4CNC[C@@H]4F)cccc3c2CC(F)(F)F)CCCNC1` (stereo partly drawn) [Example 1-32, (E)-7-(((3R,4S)-4-fluoropyrrolidin-3-yl)amino)-3-(2,2,2-trifluoroethyl)benzo[b]thiophene-2-carbaldehyde O-((3-hydroxypiperidin-3-yl)methyl) oxime], which EC50 is on record?
The EC50 was greater than 1000 nM.

`OC1CNCCC1O/N=C/c1sc2c(N[C@@H]3CNC[C@@H]3F)cccc2c1CC(F)(F)F` (stereo partly drawn) [Example 1-33, (E)-7-(((3R,4S)-4-fluoropyrrolidin-3-yl)amino)-3-(2,2,2-trifluoroethyl)benzo[b]thiophene-2-carbaldehyde O-(3-hydroxypiperidin-4-yl) oxime] was tested. Which EC50 did it give?
Its EC50 is greater than 1000 nM.

How did the EC50 turn out when `OC(COCc1ccccc1)CO/N=C/c1sc2c(N[C@@H]3CNC[C@@H]3F)cccc2c1CC(F)(F)F` (stereo partly drawn) [Example 1-34, (E)-7-(((3R,4S)-4-fluoropyrrolidin-3-yl)amino)-3-(2,2,2-trifluoroethyl)benzo[b]thiophene-2-carbaldehyde O-(3-(benzyloxy)-2-hydroxypropyl) oxime] was run?
The EC50 was greater than 1000 nM.

Which EC50 does the source give for `OC1CCCCC1O/N=C/c1sc2c(N[C@@H]3CNC[C@@H]3F)cccc2c1CC(F)(F)F` (stereo partly drawn) [Example 1-35, (E)-7-(((3R,4S)-4-fluoropyrrolidin-3-yl)amino)-3-(2,2,2-trifluoroethyl)benzo[b]thiophene-2-carbaldehyde O-(2-hydroxycyclohexyl) oxime] here?
Its EC50 is 100 to 1000 nM.

`OC1CNCC1O/N=C/c1sc2c(N[C@@H]3CNC[C@@H]3F)cccc2c1CC(F)(F)F` (stereo partly drawn) [Example 1-36, (E)-7-(((3R,4S)-4-fluoropyrrolidin-3-yl)amino)-3-(2,2,2-trifluoroethyl)benzo[b]thiophene-2-carbaldehyde O-(4-hydroxypyrrolidin-3-yl) oxime] was tested. Which EC50 did it give?
The EC50 was 100 to 1000 nM.

For `OC1COCC1O/N=C/c1sc2c(N[C@@H]3CNC[C@@H]3F)cccc2c1CC(F)(F)F` (stereo partly drawn) [Example 1-37, (E)-7-(((3R,4S)-4-fluoropyrrolidin-3-yl)amino)-3-(2,2,2-trifluoroethyl)benzo[b]thiophene-2-carbaldehyde O-(4-hydroxytetrahydrofuran-3-yl) oxime], which EC50 is on record?
The EC50 was less than 100 nM.

Which EC50 does the source give for `CS(=O)(=O)N1CC(O)C(O/N=C/c2sc3c(N[C@@H]4CNC[C@@H]4F)cccc3c2CC(F)(F)F)C1` (stereo partly drawn) [Example 1-38, (E)-7-(((3R,4S)-4-fluoropyrrolidin-3-yl)amino)-3-(2,2,2-trifluoroethyl)benzo[b]thiophene-2-carbaldehyde O-(4-hydroxy-1-(methylsulfonyl)pyrrolidin-3-yl) oxime] here?
Its EC50 is 100 to 1000 nM.

With `CN1CC[C@@H](Nc2cccc3c(CC(F)(F)F)c(/C=N/OCC(C)(C)O)sc23)[C@@H](F)C1` [Example 1-39, (E)-7-(((3S,4R)-3-fluoro-1-methylpiperidin-4-yl)amino)-3-(2,2,2-trifluoroethyl)benzo[b]thiophene-2-carbaldehyde O-(2-hydroxy-2-methylpropyl) oxime] as the compound, how does the EC50 read?
Its EC50 is less than 100 nM.

How did the EC50 turn out when `OC1(CO/N=C/c2sc3c(N[C@@H]4CNC[C@@H]4F)cccc3c2CC(F)(F)F)CCOC1` (stereo partly drawn) [Example 1-40, (E)-7-(((3R,4S)-4-fluoropyrrolidin-3-yl)amino)-3-(2,2,2-trifluoroethyl)benzo[b]thiophene-2-carbaldehyde O-((3-hydroxytetrahydrofuran-3-yl)methyl) oxime] was run?
Its EC50 is 100 to 1000 nM.

`CN1CC[C@@H](Nc2cccc3c2cc(/C=N/OCC2CC2)n3CC(F)(F)F)[C@@H](F)C1` [Example 2-1, (E)-4-(((3S,4R)-3-fluoro-1-methylpiperidin-4-yl)amino)-1-(2,2,2-trifluoroethyl)-1H-indole-2-carbaldehyde O-cyclopropylmethyl oxime] was tested. Which EC50 did it give?
The EC50 was greater than 1000 nM.

How did the EC50 turn out when `CO/N=C/c1cc2c(N[C@@H]3CCN(C)C[C@@H]3F)cccc2n1CC(F)(F)F` [Example 2-2, (E)-4-(((3S,4R)-3-fluoro-1-methylpiperidin-4-yl)amino)-1-(2,2,2-trifluoroethyl)-1H-indole-2-carbaldehyde O-methyl oxime] was run?
The EC50 was greater than 1000 nM.

Which EC50 does the source give for `CN1CC[C@@H](Nc2cccc3c2cc(/C=N/OCc2ccccc2)n3CC(F)(F)F)[C@@H](F)C1` [Example 2-3, (E)-4-(((3S,4R)-3-fluoro-1-methylpiperidin-4-yl)amino)-1-(2,2,2-trifluoroethyl)-1H-indole-2-carbaldehyde O-benzyl oxime] here?
The EC50 was greater than 1000 nM.

Which EC50 does the source give for `CN1CC[C@@H](Nc2cccc3c2cc(/C=N\OCc2ccccc2)n3CC(F)(F)F)[C@@H](F)C1` [Example 2-4, (Z)-4-(((3S,4R)-3-fluoro-1-methylpiperidin-4-yl)amino)-1-(2,2,2-trifluoroethyl)-1H-indole-2-carbaldehyde O-benzyl oxime] here?
Its EC50 is greater than 1000 nM.

Which EC50 does the source give for `CN1CC[C@@H](Nc2cccc3c2cc(/C=N\Oc2ccccc2)n3CC(F)(F)F)[C@@H](F)C1` [Example 2-5, (Z)-4-(((3S,4R)-3-fluoro-1-methylpiperidin-4-yl)amino)-1-(2,2,2-trifluoroethyl)-1H-indole-2-carbaldehyde O-phenyl oxime] here?
Its EC50 is greater than 1000 nM.

For `CN1CC[C@@H](Nc2cccc3c2cc(/C=N/Oc2ccccc2)n3CC(F)(F)F)[C@@H](F)C1` [Example 2-6, (E)-4-(((3S,4R)-3-fluoro-1-methylpiperidin-4-yl)amino)-1-(2,2,2-trifluoroethyl)-1H-indole-2-carbaldehyde O-phenyl oxime], which EC50 is on record?
Its EC50 is greater than 1000 nM.

For `CNC(=O)CO/N=C/c1cc2c(N[C@@H]3CCN(C)C[C@@H]3F)cccc2n1CC(F)(F)F` [Example 2-7, 2-((((E)-(4-(((3S,4R)-3-fluoro-1-methylpiperidin-4-yl)amino)-1-(2,2,2-trifluoroethyl)-1H-indol-2-yl)methylene)amino)oxy)-N-methylacetamide], which EC50 is on record?
The EC50 was greater than 1000 nM.

With `CN1CC[C@@H](Nc2cccc3c2cc(/C=N/OCC(=O)Nc2ccccc2)n3CC(F)(F)F)[C@@H](F)C1` [Example 2-8, 2-((((E)-(4-(((3S,4R)-3-fluoro-1-methylpiperidin-4-yl)amino)-1-(2,2,2-trifluoroethyl)-1H-indol-2-yl)methylene)amino)oxy)-N-phenylacetamide] as the compound, how does the EC50 read?
The EC50 was 100 to 1000 nM.
